How the values were obtained:
[1] = target: T1, EGFR mutant Del19 (E746-A750) (Homo sapiens, UniProt P00533, DEL746-750); test: Kinase inhibition assay, EGFR del E746-A750; assay type: biochemical; details: read-out: EGFR mutants Del19 (E746-A750);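 also: truncated human EGFR mutant kinase, two-hour preincubation with compound, then one-hour reaction with ATP and ULight-PolyGT peptide, LANCE Europium-antibody phosphorylation readout, IC50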
T1 construct: truncated human JAK3, EGFR mutants such as del E746-A750; purchased Carna Biosciences

EGFR mutant L858R = target: T2, EGFR mutant L858R (Homo sapiens, UniProt P00533, L858R); test: Kinase inhibition assay, EGFR L858R; assay type: biochemical; details: read-out: EGFR mutants L858R;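 also: truncated human EGFR L858R kinase with compound preincubation, ULight-PolyGT peptide phosphorylation read by Europium-antibody Lance detection, IC50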
T2 construct: truncated human JAK3, EGFR mutants such as del E746-A750; purchased Carna Biosciences

EGFR mutant T790M = target: T3, EGFR mutant T790M (Homo sapiens, UniProt P00533, T790M); test: Kinase inhibition assay, EGFR mutant T790M; details: biochemical potency;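 also: truncated human EGFR mutant enzyme preincubated two hours with compound, then ATP plus ULight-PolyGT peptide for one hour, Europium-labeled antibody LANCE detection, IC50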
T3 construct: truncated human JAK3, EGFR mutants such as del E746-A750; purchased Carna Biosciences

EGFR mutant Del19/T790M = target: T4, EGFR mutant Del19/T790M (Homo sapiens, UniProt P00533, DEL746-750/T790M); test: Kinase inhibition assay, EGFR del E746-A750/T790M; assay type: biochemical; details: read-out: EGFR mutants Del19/T790M
T4 construct: truncated human JAK3, EGFR mutants such as del E746-A750; purchased Carna Biosciences

SYK = target: T5, SYK (Homo sapiens, UniProt P43405); test: Kinase inhibition assay, SYK; assay type: biochemical; details: biochemical potency;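 also: purified full-length human SYK pre-incubated 30 min with compound, then ULight-TK peptide phosphorylation for 1 h, detected with Europium-labeled antibody in Lance buffer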
T5 construct: Purified human, full-length SYK, KDR; purchased Carna Biosciences

EGFR mutant L858R/T790M = target: T6, EGFR mutant L858R/T790M (Homo sapiens, UniProt P00533, L858R/T790M); test: Kinase inhibition assay, EGFR L858R/T790M; assay type: biochemical; details: read-out: EGFR mutants L858R/T790M;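 also: truncated human enzyme preincubated two hours with compound, then one hour with one millimolar ATP and ULight-PolyGT peptide, Europium-labeled antibody detection, IC50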
T6 construct: truncated human JAK3, EGFR mutants such as del E746-A750; purchased Carna Biosciences
T6 sequence (P00533 669-1210 T790M/L858R limits assumed): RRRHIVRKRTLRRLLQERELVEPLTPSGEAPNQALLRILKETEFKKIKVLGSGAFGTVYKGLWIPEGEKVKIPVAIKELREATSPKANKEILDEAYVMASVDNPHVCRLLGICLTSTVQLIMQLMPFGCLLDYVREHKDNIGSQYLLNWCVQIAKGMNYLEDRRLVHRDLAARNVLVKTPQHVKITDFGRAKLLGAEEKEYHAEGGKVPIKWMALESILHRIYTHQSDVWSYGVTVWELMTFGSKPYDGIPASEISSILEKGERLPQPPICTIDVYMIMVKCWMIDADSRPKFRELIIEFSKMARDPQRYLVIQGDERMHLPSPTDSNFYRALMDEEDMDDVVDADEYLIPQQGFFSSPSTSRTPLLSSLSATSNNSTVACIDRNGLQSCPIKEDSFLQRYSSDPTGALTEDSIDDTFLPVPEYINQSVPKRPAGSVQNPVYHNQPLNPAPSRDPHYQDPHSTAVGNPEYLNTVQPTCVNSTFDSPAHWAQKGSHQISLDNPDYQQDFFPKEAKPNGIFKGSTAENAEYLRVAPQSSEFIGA

T3 sequence (P00533 669-1210 T790M limits assumed): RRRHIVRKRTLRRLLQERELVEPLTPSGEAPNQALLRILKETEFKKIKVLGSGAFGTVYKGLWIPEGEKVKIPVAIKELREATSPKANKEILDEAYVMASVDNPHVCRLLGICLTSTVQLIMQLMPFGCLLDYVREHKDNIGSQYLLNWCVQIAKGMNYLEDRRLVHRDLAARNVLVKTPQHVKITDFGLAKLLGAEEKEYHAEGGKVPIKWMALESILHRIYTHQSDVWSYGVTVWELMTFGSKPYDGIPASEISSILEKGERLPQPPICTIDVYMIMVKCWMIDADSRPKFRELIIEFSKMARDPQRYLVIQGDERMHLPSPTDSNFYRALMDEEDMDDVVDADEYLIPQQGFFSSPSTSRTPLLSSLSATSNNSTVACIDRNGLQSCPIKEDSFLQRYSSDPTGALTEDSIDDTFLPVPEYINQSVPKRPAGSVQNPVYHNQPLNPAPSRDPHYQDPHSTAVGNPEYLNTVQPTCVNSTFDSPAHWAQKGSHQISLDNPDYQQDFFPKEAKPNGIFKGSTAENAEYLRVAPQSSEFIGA
T2 sequence (P00533 669-1210 L858R limits assumed): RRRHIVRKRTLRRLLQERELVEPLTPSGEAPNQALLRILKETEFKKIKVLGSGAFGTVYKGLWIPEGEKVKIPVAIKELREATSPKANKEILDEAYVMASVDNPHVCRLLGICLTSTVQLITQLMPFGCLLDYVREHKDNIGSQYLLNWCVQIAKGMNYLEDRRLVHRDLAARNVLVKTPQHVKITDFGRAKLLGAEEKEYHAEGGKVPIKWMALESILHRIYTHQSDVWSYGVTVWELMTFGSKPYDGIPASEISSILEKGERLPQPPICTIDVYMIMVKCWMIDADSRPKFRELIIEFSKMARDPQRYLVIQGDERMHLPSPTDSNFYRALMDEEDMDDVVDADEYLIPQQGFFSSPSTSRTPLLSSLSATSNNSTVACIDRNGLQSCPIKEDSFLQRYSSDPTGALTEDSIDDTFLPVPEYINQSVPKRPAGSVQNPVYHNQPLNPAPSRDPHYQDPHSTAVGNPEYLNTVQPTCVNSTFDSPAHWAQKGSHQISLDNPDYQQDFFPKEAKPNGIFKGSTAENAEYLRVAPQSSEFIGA
T4 sequence (P00533 with tags, fused parts or gaps DEL746-750/T790M limits assumed): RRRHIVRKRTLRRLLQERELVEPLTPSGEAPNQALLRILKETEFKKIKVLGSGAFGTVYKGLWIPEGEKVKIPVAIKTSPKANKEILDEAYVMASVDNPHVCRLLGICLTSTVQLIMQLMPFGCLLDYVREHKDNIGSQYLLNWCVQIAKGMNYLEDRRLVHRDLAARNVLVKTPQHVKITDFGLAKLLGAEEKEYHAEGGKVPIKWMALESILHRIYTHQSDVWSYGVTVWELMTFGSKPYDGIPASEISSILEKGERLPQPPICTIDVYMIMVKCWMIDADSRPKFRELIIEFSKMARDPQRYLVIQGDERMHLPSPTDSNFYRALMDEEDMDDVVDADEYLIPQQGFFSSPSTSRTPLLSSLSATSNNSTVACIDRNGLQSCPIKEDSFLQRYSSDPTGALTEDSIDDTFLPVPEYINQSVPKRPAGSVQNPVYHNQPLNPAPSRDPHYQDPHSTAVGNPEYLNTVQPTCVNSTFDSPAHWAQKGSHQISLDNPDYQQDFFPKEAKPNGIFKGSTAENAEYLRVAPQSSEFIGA
T1 sequence (P00533 with tags, fused parts or gaps DEL746-750 limits assumed): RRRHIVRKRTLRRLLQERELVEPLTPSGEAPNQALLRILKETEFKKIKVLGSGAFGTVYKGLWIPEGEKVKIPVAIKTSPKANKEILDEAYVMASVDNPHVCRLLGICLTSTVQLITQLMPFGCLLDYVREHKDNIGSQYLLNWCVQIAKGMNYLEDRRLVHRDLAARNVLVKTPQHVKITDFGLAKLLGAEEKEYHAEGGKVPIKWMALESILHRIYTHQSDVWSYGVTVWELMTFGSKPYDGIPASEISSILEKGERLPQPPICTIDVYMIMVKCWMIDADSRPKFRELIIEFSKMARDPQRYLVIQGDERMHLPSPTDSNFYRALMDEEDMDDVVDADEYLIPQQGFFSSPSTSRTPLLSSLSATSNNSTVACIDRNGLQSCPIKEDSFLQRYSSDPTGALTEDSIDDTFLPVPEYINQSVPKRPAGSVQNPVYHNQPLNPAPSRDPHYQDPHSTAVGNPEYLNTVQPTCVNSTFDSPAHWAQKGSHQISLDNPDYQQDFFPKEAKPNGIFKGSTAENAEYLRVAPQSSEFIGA

SMILES	IC50 [1] [nM]	IC50 (EGFR mutant L858R) [nM]	IC50 (EGFR mutant T790M) [nM]	IC50 (EGFR mutant Del19/T790M) [nM]	IC50 (SYK) [nM]	IC50 (EGFR mutant L858R/T790M) [nM]
C=CC(=O)Nc1cc(Nc2ncc(C)c(-n3cc(CN4CC(O)C4)c(C)n3)n2)c(OC)cc1N(C)CCN(C)C [Compound 31, N-(2-((2-(dimethylamino)ethyl)(methyl)amino)-5-(4-(4-((3-hydroxyazetidin-1-yl)methyl)-3-methyl-1H-pyrazol-1-yl)-5-methylpyrimidin-2-ylamino)-4-methoxyphenyl)acrylamide]	< 20	< 20	< 20	< 20	20 to 200	< 20
C=CC(=O)Nc1cc(Nc2nccc(-n3cc(CN4CCC4)cn3)n2)c(OC)cc1N(C)C [Compound 38, N-(5-(4-(4-(azetidin-1-ylmethyl)-1H-pyrazol-1-yl)pyrimidin-2-ylamino)-2-(dimethylamino)-4-methoxyphenyl)acrylamide]	< 20	< 20	< 20	20 to 200	> 1000	< 20
C=CC(=O)Nc1cc(Nc2ncc(C)c(-n3cc(CN4C[C@H](O)[C@H](OC)C4)cn3)n2)c(OC)cc1N(C)CCN(C)C [Compound 43, N-(2-((2-(dimethylamino)ethyl)(methyl)amino)-5-(4-(4-(((3S,4R)-3-hydroxy-4-methoxypyrrolidin-1-yl)methyl)-1H-pyrazol-1-yl)-5-methylpyrimidin-2-ylamino)-4-methoxyphenyl)acrylamide]	< 20	< 20	< 20	< 20	> 1000	< 20
C=CC(=O)Nc1cc(Nc2nccc(-n3cc(CN4CC(OC)C4)c(C)n3)n2)c(OC)cc1N1CCOCC1 [Compound 44, N-(4-methoxy-5-(4-(4-((3-methoxyazetidin-1-yl)methyl)-3-methyl-1H-pyrazol-1-yl)pyrimidin-2-ylamino)-2-morpholinophenyl)acrylamide]	20 to 200	20 to 200	201 to 1000	20 to 200	> 1000	20 to 200
C=CC(=O)Nc1cc(Nc2nccc(-n3cc(CN4C[C@H](O)[C@H](OC)C4)c(C)n3)n2)c(OC)cc1N1CCOCC1 [Compound 45, N-(5-(4-(4-(((3S,4R)-3-hydroxy-4-methoxypyrrolidin-1-yl)methyl)-3-methyl-1H-pyrazol-1-yl)pyrimidin-2-ylamino)-4-methoxy-2-morpholinophenyl)acrylamide]	< 20	20 to 200	20 to 200	< 20	> 1000	< 20
C=CC(=O)Nc1cc(Nc2ncc(Cl)c(-n3cc(CN4C[C@H](O)[C@H](OC)C4)c(C)n3)n2)c(OC)cc1N1CCOCC1 [Compound 51, N-(5-(5-chloro-4-(4-(((3S,4R)-3-hydroxy-4-methoxypyrrolidin-1-yl)methyl)-3-methyl-1H-pyrazol-1-yl)pyrimidin-2-ylamino)-4-methoxy-2-morpholinophenyl)acrylamide]	20 to 200	20 to 200	< 20	< 20	> 1000	< 20
C=CC(=O)Nc1cc(Nc2ncc(Cl)c(-n3cc(CN(C)C)c(C)n3)n2)c(OC)cc1N1CCOCC1 [Compound 52, N-(5-(5-chloro-4-(4-((dimethylamino)methyl)-3-methyl-1H-pyrazol-1-yl)pyrimidin-2-ylamino)-4-methoxy-2-morpholinophenyl)acrylamide]	< 20	< 20	< 20	< 20	201 to 1000	< 20
C=CC(=O)Nc1cc(Nc2nccc(-n3cc(CN4C[C@H](O)[C@H](OC)C4)c(C4CC4)n3)n2)c(OC)cc1N1CCOCC1 [Compound 56, N-(5-(4-(3-cyclopropyl-4-(((3S,4R)-3-hydroxy-4-methoxypyrrolidin-1-yl)methyl)-1H-pyrazol-1-yl)pyrimidin-2-ylamino)-4-methoxy-2-morpholinophenyl)acrylamide]	< 20	< 20	< 20	< 20	> 1000	< 20
C=CC(=O)Nc1cc(Nc2nccc(-n3cc(CN4CCC4)c(C)n3)n2)c(OC)cc1C1=CCN(C)CC1 [Compound 59, N-(5-(4-(4-(azetidin-1-ylmethyl)-3-methyl-1H-pyrazol-1-yl)pyrimidin-2-ylamino)-4-methoxy-2-(1-methyl-1,2,3,6-tetrahydropyridin-4-yl)phenyl)acrylamide]	< 20	< 20	< 20	< 20	> 1000	< 20
C=CC(=O)Nc1cc(Nc2ncc(F)c(-n3cc(C)c(CN4CCC4)c3)n2)c(OC)cc1N1CCOCC1 [Compound 60, N-(5-(4-(3-(azetidin-1-ylmethyl)-4-methyl-1H-pyrrol-1-yl)-5-fluoropyrimidin-2-ylamino)-4-methoxy-2-morpholinophenyl)acrylamide]	< 20	20 to 200	20 to 200	< 20	> 1000	< 20
C=CC(=O)Nc1cc(Nc2nccc(-n3cc(CN(C)C)c(-c4ccc(C)cc4)n3)n2)c(OC)cc1N1CCOCC1 [Compound 80, N-(5-(4-(4-((dimethylamino)methyl)-3-p-tolyl-1H-pyrazol-1-yl)pyrimidin-2-ylamino)-4-methoxy-2-morpholinophenyl)acrylamide]	< 20	< 20	< 20	< 20	> 1000	< 20
C=CC(=O)Nc1cc(Nc2nccc(-n3cc(CN4CCC4)c(-c4ccc(F)cc4)n3)n2)c(OC)cc1N1CCOCC1 [Compound 81, N-(5-(4-(4-(azetidin-1-ylmethyl)-3-(4-fluorophenyl)-1H-pyrazol-1-yl)pyrimidin-2-ylamino)-4-methoxy-2-morpholinophenyl)acrylamide]	20 to 200	20 to 200	201 to 1000	20 to 200	> 1000	20 to 200
C=CC(=O)Nc1cc(Nc2nccc(-n3cc(CN(C)C)c(-c4ccccc4)n3)n2)c(OC)cc1N(C)C [Compound 83, N-(2-(dimethylamino)-5-(4-(4-((dimethylamino)methyl)-3-phenyl-1H-pyrazol-1-yl)pyrimidin-2-ylamino)-4-methoxyphenyl)acrylamide]	< 20	< 20	< 20	< 20	> 1000	< 20

Results, then the molecule that gave them:

IC50 [1] [nM]	IC50 (EGFR mutant L858R) [nM]	IC50 (EGFR mutant T790M) [nM]	IC50 (EGFR mutant Del19/T790M) [nM]	IC50 (SYK) [nM]	IC50 (EGFR mutant L858R/T790M) [nM]	SMILES
20 to 200	20 to 200	< 20	< 20	> 1000	20 to 200	C=CC(=O)Nc1cc(Nc2ncc(C)c(-n3cc(CN4CCOCC4)cn3)n2)c(OC)cc1N1CCN(C)CC1 [Compound 33, N-(4-methoxy-5-(5-methyl-4-(4-(morpholinomethyl)-1H-pyrazol-1-yl)pyrimidin-2-ylamino)-2-(4-methylpiperazin-1-yl)phenyl)acrylamide]
< 20	< 20	< 20	< 20	201 to 1000	< 20	C=CC(=O)Nc1cc(Nc2ncc(C)c(-n3cc(CN4CCC4)cn3)n2)c(OC)cc1N1CCN(C(C)=O)CC1 [Compound 37, N-(2-(4-acetylpiperazin-1-yl)-5-(4-(4-(azetidin-1-ylmethyl)-1H-pyrazol-1-yl)-5-methylpyrimidin-2-ylamino)-4-methoxyphenyl)acrylamide]
< 20	< 20	< 20	< 20	201 to 1000	< 20	C=CC(=O)Nc1cc(Nc2ncc(C)c(-n3cc(CN4CCC4)cn3)n2)c(OC)cc1N1CCCN(C)CC1 [Compound 41, N-(5-(4-(4-(azetidin-1-ylmethyl)-1H-pyrazol-1-yl)-5-methylpyrimidin-2-ylamino)-4-methoxy-2-(4-methyl-1,4-diazepan-1-yl)phenyl)acrylamide]
< 20	20 to 200	< 20	< 20	> 1000	< 20	C=CC(=O)Nc1cc(Nc2ncc(C)c(-n3cc(CN4CCC4)cn3)n2)c(OC)cc1C1=CCN(C)CC1 [Compound 64, N-(5-(4-(4-(azetidin-1-ylmethyl)-1H-pyrazol-1-yl)-5-methylpyrimidin-2-ylamino)-4-methoxy-2-(1-methyl-1,2,3,6-tetrahydropyridin-4-yl)phenyl)acrylamide]
< 20	< 20	20 to 200	< 20	> 1000	< 20	C=CC(=O)Nc1cc(Nc2ncc(C)c(-n3cc(CN4CCC4)c(C(C)(C)C)n3)n2)c(OC)cc1N1CCOCC1 [Compound 67, N-(5-(4-(4-(azetidin-1-ylmethyl)-3-tert-butyl-1H-pyrazol-1-yl)-5-methylpyrimidin-2-ylamino)-4-methoxy-2-morpholinophenyl)acrylamide]
< 20	< 20	< 20	< 20	201 to 1000	< 20	C=CC(=O)Nc1cc(Nc2ncc(Cl)c(-n3cc(CN(C)C)cn3)n2)c(OC)cc1N1CCOCC1 [Compound 77, N-(5-(5-chloro-4-(4-((dimethylamino)methyl)-1H-pyrazol-1-yl)pyrimidin-2-ylamino)-4-methoxy-2-morpholinophenyl)acrylamide]
